Holding throughout (type): in vivo, human
The subject of experiment [1] is skin tone of test subject having a natural skin tone of Fitzpatrick type IV. Kind of experiment: Skin tone lightening by oral and topical MSM in combination with an exfoliate. Conditions: oral and topical MSM plus exfoliate (e.g. twice-weekly 30% lactic or glycolic acid rinse). From the text: Referring again to FIG. 1, at step 104, a skin lightening effect may be enhanced by application of an exfoliant during the MSM treatment period. The exfoliant is believed to cause more darkly pigmented cells that formed during a pre-treatment period to be more rapidly shed. […] For example, the treatment regimen described in the second row of Table III may be combined with a twice-weekly rinse in an exfoliate solution. A suitable exfoliate solution may comprise, for example, a 30% solution of lactic or glycolic acid. A lactic acid solution may be more suitable for an individual with sensitive skin. In a test using an exfoliate in combination with oral and topical application, the test subject having a natural skin tone of Fitzpatrick type IV achieved and maintained a class III tone overall, with class II tone in constitutive skin areas.

For experiment [2], the system named is skin tone of adult test subject, skin type IV (moderate brown), Fitzpatrick classification. Kind of experiment: Skin tone lightening by oral MSM plus topical application of MSM in water solution (Table II). The conditions noted are these: once daily, 3 months. As to the method: In an alternative embodiment, step 102 may be performed by oral delivery of MSM in combination with a topical application. […] Exemplary results are also shown in […], for the same test subject reported in Table I. Each row of the table indicates result for a procedure that was performed during one of successive 3-month periods. For each procedure described in Table II, MSM delivered was in an effective amount for the reported test subject. Again, some variation in effective amount should be expected between individuals. For the procedures described in Table II, a topical application may be prepared by dissolving the indicated amount of MSM in water to provide an approximately 15% by weight solution. For example, one tablespoon of MSM may be dissolved in 8 to 10 tablespoons of warm water to prepare the solution indicated in the first row. Then, the solution may be applied to the skin, which may be kept moistened with the solution for a period of approximately ten minutes or longer. The solution may be applied cover the entire body, or only in areas where greater lightening of skin tone is desired. The indicated application may be performed once daily for approximately a three-month period. […] Suitable formulations for transdermal patches to deliver MSM should be readily ascertained by one of ordinary skill.

For experiment [3] the test system is unchanged. The experiment in a line: Skin tone lightening by oral MSM supplement taken twice daily (Table I). The conditions noted are these: 3 months. As for the experimental part: A first procedure for performing step 102 is described in Table I below, at various dosage levels and application periods. The application periods indicated in the table were carried out in immediately successive periods on the same individual. Exemplary results are also shown in Table I, for an adult test subject of approximately 45 kg weight having a skin type IV (moderate brown) according to the Fitzpatrick skin type classification. […] Because of variation between individuals, the effective amount of MSM that should be delivered to cause a noticeable change in skin tone may vary somewhat. For example, dosage should be calculated based on body weight. Based on the disclosure herein, one of ordinary skill should be able to determine an effective dosage regimen without undue experimentation. […] For the tested individual, the optimal dose for maximum skin lightening appears to be between 2000 and 4000 mg (45 to 90 mg/kg) daily.

Setting [4] is: oral MSM 2000 mg twice daily (4000 mg daily), successive period, same subject.

Entries after “also recorded” stand apart in the source; their conditions may differ.

As for `CS(C)(=O)=O` [MSM, methyl sulfonyl methane], in experiment [1], the “Skin tone achieved and maintained, constitutive skin areas” value is on record as “class II”; the “Skin tone achieved and maintained, overall” value is recorded as “class III”. The “Results (observed skin tone), total body complexion” value in experiment [2] (oral 2000 mg twice daily (4000 mg daily) + topical 1 Tablespoon (10,000 mg) MSM in water, approx. 15% solution) is “Light olive (skin type III)”. Besides, the “Results (observed skin tone), elsewhere than constitutive skin” value in experiment [2] (oral 2000 mg twice daily (4000 mg daily) + topical 2 Tablespoons (20,000 mg) MSM in water) is listed as “light olive; elsewhere light olive”. The “Results (observed skin tone)” value in experiment [3] (oral MSM 100 mg twice daily (200 mg daily), adult person ~45 kg, skin type IV) was “No Change”. Moreover, in experiment [3] (oral MSM 250 mg twice daily (500 mg daily), successive period, same subject), the “Results (observed skin tone)” value is reported as “No Change”. The “Results (observed skin tone)” value in experiment [3] (oral MSM 500 mg twice daily (1000 mg daily), successive period, same subject) is on record as “No Change”. Also, in experiment [3] (oral MSM 1000 mg twice daily (2000 mg daily), successive period, same subject), the “Results (observed skin tone), constitutive skin such as under the arms, inner thighs, chests and nipples” value was “Light Brown (skin type III)”. In addition, in experiment [3] (setting [4]), the “Results (observed skin tone), constitutive skin” value is “Olive (skin type II) observed in”; the “Results (observed skin tone), facultative skin such as the neck, face, forearms” value is given as “Light Brown (skin type III)”; the “Results, freckles on face” value is listed as “Freckles on face also lightened”. Further, the “Results (observed skin tone)” value in experiment [3] (oral MSM 3000 mg twice daily (6000 mg daily), successive period, same subject) is recorded as “did not cause noticeable lightening relative to the 4000 mg regimen; also recorded: Same results as 4000 mg per day”.

The record behind these values is patent publication US20070264212A1, “Skin Lightening Method” (priority 2004, published 2007).
